The values below come from publication PMC8479757 (Chemosphere, 2020).

Data set [1] concerns the target bovine serum albumin (BSA) (Bos taurus, UniProt P02769). Format: binding. The conditions noted are these: 310 K; for critical [PFAS]:[BSA] ratio denoting the shift from binding site to surface adsorption: Δδ begins to plateau.
For data set [2] the following is noted: United States population, 2015–2016; cited from earlier work.
The conditions of data set [3]: estimated; cited from earlier work.
The test system of a further data set is HSA. Conditions: 310 K; cited from earlier work.

bovine serum albumin (BSA), sequence (P02769 25-607): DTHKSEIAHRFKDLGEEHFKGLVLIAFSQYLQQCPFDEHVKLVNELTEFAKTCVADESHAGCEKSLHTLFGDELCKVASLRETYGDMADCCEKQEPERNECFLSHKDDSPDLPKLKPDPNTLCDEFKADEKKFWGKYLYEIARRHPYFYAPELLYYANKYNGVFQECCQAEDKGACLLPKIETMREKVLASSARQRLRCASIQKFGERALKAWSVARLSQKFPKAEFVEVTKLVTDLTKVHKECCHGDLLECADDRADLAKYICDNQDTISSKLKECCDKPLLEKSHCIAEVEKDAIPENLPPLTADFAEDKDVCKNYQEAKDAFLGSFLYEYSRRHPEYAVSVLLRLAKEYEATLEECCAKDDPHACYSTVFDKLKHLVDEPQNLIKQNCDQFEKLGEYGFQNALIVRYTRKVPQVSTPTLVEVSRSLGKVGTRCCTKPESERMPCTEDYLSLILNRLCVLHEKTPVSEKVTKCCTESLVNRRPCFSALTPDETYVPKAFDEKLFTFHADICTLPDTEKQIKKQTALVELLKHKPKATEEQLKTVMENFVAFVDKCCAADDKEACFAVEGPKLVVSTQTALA

For the compound `O=S(=O)(O)C(F)(F)C(F)(F)C(F)(F)C(F)(F)C(F)(F)C(F)(F)F` [PFHxS, perfluorohexanesulfonic acid], the “critical [PFAS]:[BSA] ratio denoting the shift from binding site to surface adsorption” value in data set [1] was 12–14. In data set [2], the average serum concentration is 0.577 µg/L.

In the case of `O=C(O)C(F)(F)C(F)(F)C(F)(F)C(F)(F)C(F)(F)C(F)(F)C(F)(F)C(F)(F)F` [PFNA, perfluorononanoic acid], the “critical [PFAS]:[BSA] ratio denoting the shift from binding site to surface adsorption” value in data set [1] is 12–14. For the same compound, in data set [3], the half-life in humans is 2.5 years. In addition, the average serum concentration in data set [2] was 1.18 µg/L.

As usually defined, the Kd is the free concentration of one partner at which half of the binding sites on the other are occupied at equilibrium, for simple one-to-one binding. Low readings indicate higher affinity, high ones lower affinity. In the case of `O=C(O)C(F)(F)C(F)(F)C(F)(F)C(F)(F)C(F)(F)C(F)(F)C(F)(F)F` [PFOA, perfluorooctanoic acid], the “critical [PFAS]:[BSA] ratio denoting the shift from binding site to surface adsorption” value in data set [1] is 12–14. Besides, binding in data set [1] (Ka (ω, terminal −CF3 position), BSA, pH 7.4 PBS, Ka=Kd^−1) was characterised by a dissociation constant (Kd) of 6.45 µM. The average serum concentration in data set [2] is 1.56 µg/L.

Consider `O=S(=O)(O)C(F)(F)C(F)(F)C(F)(F)C(F)(F)C(F)(F)C(F)(F)C(F)(F)C(F)(F)F` [PFOS, perfluorooctanesulfonic acid], for which the “Ka (ω, terminal −CF3 position)” value in data set [1] (BSA, pH 7.4 PBS, Ka=Kd^−1) was 357 mM⁻¹. Besides, the half-life in humans in data set [3] is on record as 5.4 years. Besides, in data set [2], the average serum concentration is 4.72 µg/L.

For the compound `CCCCCCCCCC(=O)O` [decanoic acid], the “Ka for binding to HSA” value with HSA was 100 mM⁻¹.

For the compound `CCCCCC(=O)O` [hexanoic acid], in the data set on HSA, the “Ka for binding to HSA” value was 15 mM⁻¹.

As to `CCCCCCCC(=O)O` [octanoic acid], in the data set on HSA, the “Ka for binding to HSA” value is 34 mM⁻¹.
